Measurements reported in ChEMBL document CHEMBL3885861, “Open TG-GATES”.

Organism: Rattus norvegicus
Test: Open TG-GATES - Regimen: Single
Assay type: toxicity, organism-based, Sprague-Dawley
Set-up: regimen Single, gender Male, age 6 weeks
Details: in vivo, po, route gavage; for APTT / Bas / Eos / Fbg / Hb / Ht / Lym / MCH / MCHC / MCV / Mono / Neu / Plat / RBC / Ret / WBC: tissue Blood; for KIDNEY_L / KIDNEY_R / KIDNEY_TOTAL: tissue Kidney; for LIVER: tissue Liver; for ALP / ALT / AST / CRE / DBIL / GLC / IP / K / LDH / Na / PL / RALB / TBIL / TC / TG / TP / gamma-GTP: tissue Plasma
[1] = 0 mg/kg, 3 h, dose level Control
[2] = 0 mg/kg, 6 h, dose level Control
[3] = 0 mg/kg, 9 h, dose level Control
[4] = 0 mg/kg, 24 h, dose level Control

SMILES: CN(C)CCC=C1c2ccccc2COc2ccccc21 [DOXEPIN]
- TERMINAL_BW [1]: 197.6 g
- APTT [1]: 20.9 s
- Bas [1]: 0%
- Eos [1]: 0.8%
- Fbg [1]: 250.4 mg/dL
- Hb [1]: 13.6 g/dL
- Ht [1]: 41.4%
- Lym [1]: 77.4%
- MCH [1]: 21.2 pg
- MCHC [1]: 32.9%
- MCV [1]: 64.4 fL
- Mono [1]: 3.6%
- Neu [1]: 17.4%
- Plat [1]: 123.1 x10_4/uL
- RBC [1]: 644 x10_4/ul
- Ret [1]: 8.4%
- WBC [1]: 93.1 x10_2/uL
- KIDNEY_L [1]: 0.9 g
- KIDNEY_R [1]: 0.9 g
- KIDNEY_TOTAL [1]: 1.8 g
- LIVER [1]: 8.7 g
- ALP [1]: 1553 IU/L
- ALT [1]: 44 IU/L
- AST [1]: 77.8 IU/L
- CRE [1]: 0.2 mg/dL
- DBIL [1]: 0.006 mg/dL
- GLC [1]: 169.4 mg/dL
- IP [1]: 8.4 mg/dL
- K [1]: 4.2 meq/L
- LDH [1]: 84.6 IU/L
- Na [1]: 142.4 meq/L
- PL [1]: 140.8 mg/dL
- RALB [1]: 2.5 g/dL
- TBIL [1]: 0.056 mg/dL
- TC [1]: 74.8 mg/dL
- TG [1]: 58.2 mg/dL
- TP [1]: 5.3 g/dL
- gamma-GTP [1]: 1.2 IU/L
- TERMINAL_BW [2]: 196 g
- APTT [2]: 17.7 s
- Bas [2]: 0.2%
- Eos [2]: 0.8%
- Fbg [2]: 265.6 mg/dL
- Hb [2]: 13.6 g/dL
- Ht [2]: 41.4%
- Lym [2]: 79.2%
- MCH [2]: 21.8 pg
- MCHC [2]: 32.8%
- MCV [2]: 66.3 fL
- Mono [2]: 3%
- Neu [2]: 16.2%
- Plat [2]: 112.3 x10_4/uL
- RBC [2]: 624.8 x10_4/ul
- Ret [2]: 9.3%
- WBC [2]: 110.1 x10_2/uL
- KIDNEY_L [2]: 0.9 g
- KIDNEY_R [2]: 0.9 g
- KIDNEY_TOTAL [2]: 1.8 g
- LIVER [2]: 8.1 g
- ALP [2]: 1565.4 IU/L
- ALT [2]: 37.4 IU/L
- AST [2]: 77.2 IU/L
- CRE [2]: 0.2 mg/dL
- DBIL [2]: 0.004 mg/dL
- GLC [2]: 158.4 mg/dL
- IP [2]: 8.9 mg/dL
- K [2]: 4.1 meq/L
- LDH [2]: 80.2 IU/L
- Na [2]: 142.6 meq/L
- PL [2]: 143.6 mg/dL
- RALB [2]: 2.4 g/dL
- TBIL [2]: 0.06 mg/dL
- TC [2]: 76.4 mg/dL
- TG [2]: 49.2 mg/dL
- TP [2]: 5.3 g/dL
- gamma-GTP [2]: 1.2 IU/L
- TERMINAL_BW [3]: 195.7 g
- APTT [3]: 17.2 s
- Bas [3]: 0%
- Eos [3]: 1%
- Fbg [3]: 271.8 mg/dL
- Hb [3]: 13.2 g/dL
- Ht [3]: 39.9%
- Lym [3]: 77.8%
- MCH [3]: 21.5 pg
- MCHC [3]: 32.9%
- MCV [3]: 65.3 fL
- Mono [3]: 2.2%
- Neu [3]: 18.6%
- Plat [3]: 119.3 x10_4/uL
- RBC [3]: 612.4 x10_4/ul
- Ret [3]: 8.9%
- WBC [3]: 87 x10_2/uL
- KIDNEY_L [3]: 0.9 g
- KIDNEY_R [3]: 0.9 g
- KIDNEY_TOTAL [3]: 1.8 g
- LIVER [3]: 7.5 g
- ALP [3]: 1472.4 IU/L
- ALT [3]: 36.6 IU/L
- AST [3]: 71.2 IU/L
- CRE [3]: 0.2 mg/dL
- DBIL [3]: 0 mg/dL
- GLC [3]: 159.2 mg/dL
- IP [3]: 9.7 mg/dL
- K [3]: 3.9 meq/L
- LDH [3]: 95 IU/L
- Na [3]: 143 meq/L
- PL [3]: 125.8 mg/dL
- RALB [3]: 2.4 g/dL
- TBIL [3]: 0.058 mg/dL
- TC [3]: 70.6 mg/dL
- TG [3]: 33.6 mg/dL
- TP [3]: 5.3 g/dL
- gamma-GTP [3]: 1.2 IU/L
- TERMINAL_BW [4]: 214.2 g
- APTT [4]: 18.6 s
- Bas [4]: 0%
- Eos [4]: 1.2%
- Fbg [4]: 269 mg/dL
- Hb [4]: 13 g/dL
- Ht [4]: 38.8%
- Lym [4]: 76.4%
- MCH [4]: 21.7 pg
- MCHC [4]: 33.5%
- MCV [4]: 64.8 fL
- Mono [4]: 3%
- Neu [4]: 19%
- Plat [4]: 116.4 x10_4/uL
- RBC [4]: 600.2 x10_4/ul
- Ret [4]: 8.1%
- WBC [4]: 94.8 x10_2/uL
- KIDNEY_L [4]: 1 g
- KIDNEY_R [4]: 0.9 g
- KIDNEY_TOTAL [4]: 1.9 g
- ALP [4]: 2073 IU/L
- ALT [4]: 37.8 IU/L
- AST [4]: 75.6 IU/L
- CRE [4]: 0.2 mg/dL
- DBIL [4]: 0.004 mg/dL
- GLC [4]: 173.2 mg/dL
- IP [4]: 7.2 mg/dL
- K [4]: 4 meq/L
- LDH [4]: 106.6 IU/L
- Na [4]: 141.6 meq/L
- PL [4]: 153.8 mg/dL
- RALB [4]: 2.5 g/dL
- TBIL [4]: 0.04 mg/dL
- TC [4]: 80.2 mg/dL
- TG [4]: 89 mg/dL
- TP [4]: 5.6 g/dL
- gamma-GTP [4]: 1 IU/L
- TERMINAL_BW (100 mg/kg, 3 h, dose level Low): 198.2 g
- APTT (100 mg/kg, 3 h, dose level Low): 19.4 s
- Bas (100 mg/kg, 3 h, dose level Low): 0%
- Eos (100 mg/kg, 3 h, dose level Low): 1%
- Fbg (100 mg/kg, 3 h, dose level Low): 282.4 mg/dL
- Hb (100 mg/kg, 3 h, dose level Low): 13.1 g/dL
- Ht (100 mg/kg, 3 h, dose level Low): 39.8%
- Lym (100 mg/kg, 3 h, dose level Low): 79.6%
- MCH (100 mg/kg, 3 h, dose level Low): 21.2 pg
- MCHC (100 mg/kg, 3 h, dose level Low): 32.9%
- MCV (100 mg/kg, 3 h, dose level Low): 64.4 fL
- Mono (100 mg/kg, 3 h, dose level Low): 3%
- Neu (100 mg/kg, 3 h, dose level Low): 16%
- Plat (100 mg/kg, 3 h, dose level Low): 113.2 x10_4/uL
- RBC (100 mg/kg, 3 h, dose level Low): 619.4 x10_4/ul
- Ret (100 mg/kg, 3 h, dose level Low): 8.6%
- WBC (100 mg/kg, 3 h, dose level Low): 80.4 x10_2/uL
- KIDNEY_L (100 mg/kg, 3 h, dose level Low): 0.9 g
- KIDNEY_R (100 mg/kg, 3 h, dose level Low): 0.9 g
- KIDNEY_TOTAL (100 mg/kg, 3 h, dose level Low): 1.8 g
- LIVER (100 mg/kg, 3 h, dose level Low): 8.6 g
- ALP (100 mg/kg, 3 h, dose level Low): 1626.2 IU/L
- ALT (100 mg/kg, 3 h, dose level Low): 39.4 IU/L
- AST (100 mg/kg, 3 h, dose level Low): 69.2 IU/L
- CRE (100 mg/kg, 3 h, dose level Low): 0.2 mg/dL
- DBIL (100 mg/kg, 3 h, dose level Low): 0 mg/dL
- GLC (100 mg/kg, 3 h, dose level Low): 182 mg/dL
- IP (100 mg/kg, 3 h, dose level Low): 8.9 mg/dL
- K (100 mg/kg, 3 h, dose level Low): 4.1 meq/L
- LDH (100 mg/kg, 3 h, dose level Low): 82 IU/L
- Na (100 mg/kg, 3 h, dose level Low): 143.8 meq/L
- PL (100 mg/kg, 3 h, dose level Low): 159.6 mg/dL
- RALB (100 mg/kg, 3 h, dose level Low): 2.5 g/dL
- TBIL (100 mg/kg, 3 h, dose level Low): 0.046 mg/dL
- TC (100 mg/kg, 3 h, dose level Low): 83.8 mg/dL
- TG (100 mg/kg, 3 h, dose level Low): 57 mg/dL
- TP (100 mg/kg, 3 h, dose level Low): 5.4 g/dL
- gamma-GTP (100 mg/kg, 3 h, dose level Low): 1 IU/L
- TERMINAL_BW (100 mg/kg, 6 h, dose level Low): 197.6 g
- APTT (100 mg/kg, 6 h, dose level Low): 16.2 s
- Bas (100 mg/kg, 6 h, dose level Low): 0%
- Eos (100 mg/kg, 6 h, dose level Low): 1%
- Fbg (100 mg/kg, 6 h, dose level Low): 282.2 mg/dL
- Hb (100 mg/kg, 6 h, dose level Low): 13.1 g/dL
- Ht (100 mg/kg, 6 h, dose level Low): 40.1%
- Lym (100 mg/kg, 6 h, dose level Low): 75.8%
- MCH (100 mg/kg, 6 h, dose level Low): 21.7 pg
- MCHC (100 mg/kg, 6 h, dose level Low): 32.8%
- MCV (100 mg/kg, 6 h, dose level Low): 66.4 fL
- Mono (100 mg/kg, 6 h, dose level Low): 2.4%
- Neu (100 mg/kg, 6 h, dose level Low): 20.2%
- Plat (100 mg/kg, 6 h, dose level Low): 119.3 x10_4/uL
- RBC (100 mg/kg, 6 h, dose level Low): 603.6 x10_4/ul
- Ret (100 mg/kg, 6 h, dose level Low): 9.7%
- WBC (100 mg/kg, 6 h, dose level Low): 94.4 x10_2/uL
- KIDNEY_L (100 mg/kg, 6 h, dose level Low): 0.9 g
- KIDNEY_R (100 mg/kg, 6 h, dose level Low): 0.9 g
- KIDNEY_TOTAL (100 mg/kg, 6 h, dose level Low): 1.8 g
- LIVER (100 mg/kg, 6 h, dose level Low): 8.1 g
- ALP (100 mg/kg, 6 h, dose level Low): 1532.8 IU/L
- ALT (100 mg/kg, 6 h, dose level Low): 37.4 IU/L
- AST (100 mg/kg, 6 h, dose level Low): 71.4 IU/L
- CRE (100 mg/kg, 6 h, dose level Low): 0.2 mg/dL
- DBIL (100 mg/kg, 6 h, dose level Low): 0.004 mg/dL
- GLC (100 mg/kg, 6 h, dose level Low): 175.2 mg/dL
- IP (100 mg/kg, 6 h, dose level Low): 9.5 mg/dL
- K (100 mg/kg, 6 h, dose level Low): 4 meq/L
- LDH (100 mg/kg, 6 h, dose level Low): 71.6 IU/L
- Na (100 mg/kg, 6 h, dose level Low): 144.6 meq/L
- PL (100 mg/kg, 6 h, dose level Low): 140.6 mg/dL
- RALB (100 mg/kg, 6 h, dose level Low): 2.5 g/dL
- TBIL (100 mg/kg, 6 h, dose level Low): 0.054 mg/dL
- TC (100 mg/kg, 6 h, dose level Low): 79.4 mg/dL
- TG (100 mg/kg, 6 h, dose level Low): 27.2 mg/dL
- TP (100 mg/kg, 6 h, dose level Low): 5.3 g/dL
- gamma-GTP (100 mg/kg, 6 h, dose level Low): 1 IU/L
